We go through 1 molecule from patent US10787436B2, “Inhibitors of cyclin-dependent kinase 7 (CDK7)” (Dana-Farber Cancer Institute, Inc., priority 2012, dated 2020).

Assay [1] concerns RNAP II occupancy. Description: RNAP II ChIP-seq in Jurkat cells. The class given is cell-based, human. As to conditions: 250 nM for 6 hours. Here is the method: After the indicated treatment time, cells were crosslinked for 10 minutes at room temperature by the addition of one-tenth of the volume of 11% formaldehyde solution (11% formaldehyde, 50 mM Hepes (pH 7.3), 100 mM NaCl, 1 mM EDTA (pH 8.0), 0.5 mM EGTA (pH 8.0)) to the growth media followed by two washes with PBS. Following the final PBS wash, supernatant was aspirated, and the cell pellet was flash frozen in liquid nitrogen. Frozen crosslinked cells were stored at −80° C.
50 μl of Dynal magnetic beads (Sigma) were blocked with 0.5% BSA (w/v) in PBS. Magnetic beads were bound with 5 μg of the indicated antibody. Antibodies used are as follows: Total RNAP II (Rpb1 N-terminus): Santa Cruz sc-899; CDK7: Bethyl A300-405A. Crosslinked cells were lysed with lysis buffer 1 (50 mM Hepes (pH 7.3), 140 mM NaCl, 1 mM EDTA, 10% glycerol, 0.5% NP-40, and 0.25% Triton X-100) and washed with lysis buffer 2 (10 mM Tris-HCl (pH 8.0), 200 mM NaCl, 1 mM EDTA (pH 8.0) and 0.5 mM EGTA (pH 8.0)). […]
Illumina sequencing libraries were generated, and data were processed according to Lin et al., Cell (2012) 151:56-67. […] These criteria preserved only reads that mapped uniquely to the genome with 1 or fewer mismatches. […]

Assay [2] deals with MLK3 (Homo sapiens (Human), UniProt Q16584). The experiment in a line: Life Technologies LanthaScreen Eu kinase assay, MLK3. The class given is binding. As to conditions: read-out: Calculated IC50, MLK3.
Assay [3] concerns the target CDK7 (recombinant CAK complex) (Homo sapiens (Human), UniProt P50613). The experiment in a line: In vitro kinase assay with recombinant CAK complex, with and without pre-incubation. The class given is biochemical. The conditions noted are these: 25 μM ATP, 45 minutes at 30° C. The protocol: Cellular lysates were then probed with antibodies recognizing the Ser-2, Ser-5, and Ser-7 CTD phosphoepitopes. […] At each time point cells were lysed, and the cellular lysates were probed using antibodies as described herein. […] Cells were allowed to grow in medium without inhibitor for 0 to 6 hours. At each time point cells were lysed, and the cellular lysates were probed using antibodies as described herein. […] The kinase reaction was then allowed to proceed for 45 minutes at 30° C.
In vitro kinase assays with immunoprecipitated proteins (or recombinant CAK complexes) were performed as follows. Kinase reactions were performed in 25 μL of final volume of reaction buffer (50 mM Hepes, pH 7.5, 150 mM NaCl, 10 mM MgCl2, 5% glycerol, 25 μM ATP, and 10 μCi of [γ-32P]ATP). Each reaction contained 1 μg of RNAP II. Incubation was at 30° C. for 30-45 min. Reactions were terminated by addition of 5 μL of 5×SDS-PAGE sample buffer and incubated at 95° C. for 5 min. Reactions were analyzed by SDS-PAGE, and the dried gel was exposed to film or PhosphorImager plate.
Covalent kinase inhibitors have several characteristics that functionally differentiate themselves from their reversible counterparts. […] Washout of compound I-23R, following a 4-hour administration led to the recovery of RNAP II CTD phosphorylation within 1 hour (FIG. 2C). […]

The subject of assay [4] is MCF7. The experiment in a line: Proliferation assay, CellTiter-Glo, 72 hour. The class given is cell-based. The conditions noted are these: breast cancer cell line, read-out: Inhibition of proliferation, MCF7.
The test system of assay [5] is HL60. Description: Proliferation assay, CellTiter-Glo, 72 hour. The conditions noted are these: blood cancer cell line, read-out: Inhibition of proliferation, HL60. The class given is cell-based. For orientation: Cellular ATP, detected with luciferase, serves as a proxy for viable cell number.
Assay [6] has as its system hTERT-HME1. Description: Proliferation assay, CellTiter-Glo, 72 hour. As to conditions: immortalized normal mammary epithelial cell line, read-out: Inhibition of proliferation, hTERT-HME1. The class given is cell-based.
Assay [7] relates to SK-ES. The experiment in a line: Proliferation assay, CellTiter-Glo, 72 hour. As to conditions: Ewing's sarcoma cell line, read-out: Inhibition of proliferation, SK-ES. The class given is cell-based.

Bounds are passed on as bounds.

Chain of MLK3 (Q16584 whole entry): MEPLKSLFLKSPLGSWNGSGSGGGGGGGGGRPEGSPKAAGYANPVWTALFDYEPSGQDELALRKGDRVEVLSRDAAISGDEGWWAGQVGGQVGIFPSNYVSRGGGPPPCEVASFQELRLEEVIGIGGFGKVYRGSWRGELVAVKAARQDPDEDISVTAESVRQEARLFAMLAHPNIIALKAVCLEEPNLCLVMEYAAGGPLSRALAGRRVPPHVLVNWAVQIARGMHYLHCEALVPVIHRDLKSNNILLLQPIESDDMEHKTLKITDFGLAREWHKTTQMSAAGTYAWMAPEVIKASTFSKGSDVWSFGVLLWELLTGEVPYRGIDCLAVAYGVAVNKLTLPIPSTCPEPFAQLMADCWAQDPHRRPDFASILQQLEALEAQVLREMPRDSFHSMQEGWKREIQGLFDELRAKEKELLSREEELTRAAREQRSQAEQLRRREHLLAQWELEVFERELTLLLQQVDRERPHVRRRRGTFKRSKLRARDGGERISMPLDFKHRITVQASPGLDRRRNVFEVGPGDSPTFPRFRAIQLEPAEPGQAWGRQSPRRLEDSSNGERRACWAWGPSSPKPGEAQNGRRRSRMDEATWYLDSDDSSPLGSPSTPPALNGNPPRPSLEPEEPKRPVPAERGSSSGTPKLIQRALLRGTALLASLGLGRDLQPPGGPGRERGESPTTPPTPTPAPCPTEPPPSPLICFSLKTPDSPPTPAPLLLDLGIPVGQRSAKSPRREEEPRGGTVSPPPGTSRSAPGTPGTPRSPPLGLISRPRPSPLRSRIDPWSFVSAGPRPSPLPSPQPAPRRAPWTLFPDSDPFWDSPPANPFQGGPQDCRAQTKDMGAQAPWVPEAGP
Chain of CDK7 (recombinant CAK complex) (P50613 whole entry): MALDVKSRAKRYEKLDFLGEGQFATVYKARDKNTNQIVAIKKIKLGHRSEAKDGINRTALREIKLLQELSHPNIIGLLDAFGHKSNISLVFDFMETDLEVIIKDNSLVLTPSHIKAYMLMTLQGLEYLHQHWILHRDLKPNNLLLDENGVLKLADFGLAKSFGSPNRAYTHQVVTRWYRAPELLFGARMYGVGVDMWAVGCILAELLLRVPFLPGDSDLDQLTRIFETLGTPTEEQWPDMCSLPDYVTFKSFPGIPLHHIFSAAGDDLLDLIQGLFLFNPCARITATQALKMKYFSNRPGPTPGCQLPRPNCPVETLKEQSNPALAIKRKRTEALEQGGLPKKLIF
Chain of CDK7 (recombinant CAK complex) (P51946 whole entry partner): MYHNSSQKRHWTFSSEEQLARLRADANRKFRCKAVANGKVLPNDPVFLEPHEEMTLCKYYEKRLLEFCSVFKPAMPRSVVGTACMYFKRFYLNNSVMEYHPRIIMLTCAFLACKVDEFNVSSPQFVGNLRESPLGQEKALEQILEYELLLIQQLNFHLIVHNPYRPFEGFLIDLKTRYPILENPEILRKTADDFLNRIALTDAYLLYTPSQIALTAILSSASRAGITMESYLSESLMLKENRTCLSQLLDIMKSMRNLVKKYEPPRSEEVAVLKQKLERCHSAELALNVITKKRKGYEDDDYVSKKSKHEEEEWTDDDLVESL
Chain of CDK7 (recombinant CAK complex) (P51948 whole entry partner): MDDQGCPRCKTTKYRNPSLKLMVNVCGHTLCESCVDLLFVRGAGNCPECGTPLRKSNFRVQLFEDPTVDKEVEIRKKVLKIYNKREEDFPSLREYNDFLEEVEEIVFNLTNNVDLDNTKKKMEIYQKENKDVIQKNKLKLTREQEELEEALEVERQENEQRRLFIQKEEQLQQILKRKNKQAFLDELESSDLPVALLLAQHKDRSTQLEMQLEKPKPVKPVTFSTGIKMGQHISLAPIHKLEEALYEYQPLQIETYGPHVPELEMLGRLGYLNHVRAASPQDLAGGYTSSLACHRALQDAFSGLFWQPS

Regarding `CN(C)C/C=C/C(=O)Nc1ccc(C(=O)Nc2cccc(Nc3ncc(Cl)c(-c4c[nH]c5ccccc45)n3)c2)cc1` [Formula I-23], the “RNAP II occupancy at the promoter proximal pause site” value in assay [1] is given as “drastically diminished”. Besides, the IC50 in assay [2] is less than 100 nM; in assay [4], less than 500 nM; in assay [5], less than 500 nM; in assay [6] it was less than 500 nM; in assay [7] it was less than 500 nM. For the same molecule, in assay [3], the “Effect of pre-incubation with recombinant CAK complex prior to addition of ATP” value is recorded as “dramatic increase in CDK7 inhibitory activity”.
